According to ChEMBL document CHEMBL1158788, “Cytotoxic constituents of the fruit body of Daedalea dickisii” (J Nat Prod, 2005):
Activity calls are given as the source filed them. The rule behind the calls is not given here.

Assays:
Type in all cases: functional, cell-based
[1] = test system: HCT-15; test: Cytotoxicity against human HCT15 cells after 48 hrs by MTT assay; details: HCT-15, 48 h
[2] = test system: HL-60; test: Cytotoxicity against human HL60 cells after 24 hrs by MTT assay; details: HL-60, 24 h
[3] = test system: HL-60; test: Induction of apoptosis in human HL60 cells assessed as DNA fragmentation at 35 uM after 8 hrs

CC(C(=O)O)[C@@H](C)C(=O)C[C@@H](C)[C@H]1CC[C@@]2(C)C3=C(CC[C@]12C)[C@@]1(C)CC[C@@H](OC(=O)CC(=O)O)C(C)(C)[C@@H]1CC3 (some centres not stated) [CARBOXYACETYLQUERCINIC ACID]
IC50 [1]: 155 µM
IC50 [2]: 45.2 µM

C=C(CC[C@@H](C(=O)O)[C@H]1[C@H](O)C[C@@]2(C)c3ccc(C)c(CCC(=O)C(C)C)c3CC[C@]12C)C(C)C [DAEDALEANIC ACID A]
IC50 [1]: 206 µM
IC50 [2]: 36 µM

C=C(CC[C@@H](C(=O)O[C@@H]1O[C@H](CO)[C@@H](O)[C@H](O)[C@H]1O)[C@H]1[C@H](OC(C)=O)C[C@@]2(C)C3=CC[C@H]4C(C)(C)C(=O)CC[C@]4(C)C3=CC[C@]12C)C(C)C [DAEDALEASIDE B]
IC50 [1]: 55 µM
IC50 [2]: 9.4 µM
Activity [3]: Active

C=C(CC[C@@H](C(=O)O[C@@H]1O[C@H](COC(C)=O)[C@@H](O)[C@H](O)[C@H]1O)[C@H]1[C@H](OC(C)=O)C[C@@]2(C)C3=CC[C@H]4C(C)(C)C(=O)CC[C@]4(C)C3=CC[C@]12C)C(C)C [DAEDALEASIDE C]
IC50 [2]: 12 µM
Activity [3]: Active

C=C(CC[C@@H](C(=O)O[C@@H]1O[C@H](CO)[C@@H](O)[C@H](O)[C@H]1O)[C@H]1[C@H](OC(C)=O)C[C@@]2(C)C3=C(CC[C@]12C)[C@@]1(C)CCC(=O)C(C)(C)[C@@H]1CC3)C(C)C [DAEDALEASIDE D]
IC50 [1]: 60 µM
IC50 [2]: 14 µM
Activity [3]: Active

C=C(CC[C@@H](C(=O)O[C@@H]1O[C@H](COC(C)=O)[C@@H](O)[C@H](O)[C@H]1O)[C@H]1[C@H](OC(C)=O)C[C@@]2(C)C3=C(CC[C@]12C)[C@@]1(C)CCC(=O)C(C)(C)[C@@H]1CC3)C(C)C [DAEDALEASIDE E]
IC50 [2]: 15 µM
Activity [3]: Active

C=C(CC[C@@H](C(=O)O[C@@H]1O[C@H](CO)[C@@H](O)[C@H](O)[C@H]1O)[C@H]1[C@H](OC(C)=O)C[C@@]2(C)c3ccc(C)c(CCC(=O)C(C)C)c3CC[C@]12C)C(C)C [DAEDALEASIDES A]
IC50 [1]: 32.3 µM
IC50 [2]: 27.9 µM

COc1cc([C@@H]2c3cc4c(cc3[C@@H](O[C@@H]3O[C@@H]5CO[C@@H](C)O[C@H]5[C@H](O)[C@H]3O)[C@H]3COC(=O)[C@H]23)OCO4)cc(OC)c1O [ETOPOSIDE]
IC50 [2]: 25 µM
